Laboratory results: a melting point compilation (Tetko et al.; mined from patent text by program, amines drawn as free bases though some values may be those of a salt)

Structure (SMILES) | melting point
O=CC=CC(=C(c1ccc(F)cc1)c1ccc(F)cc1)c1nnn(C(c2ccccc2)(c2ccccc2)c2ccccc2)n1 | 122 to 124 °C
Cc1cc2c(cc1C(F)(F)F)N(C(=O)Nc1ccc(OCc3ccccn3)nc1)CC2 | 219 to 220 °C
CC(=O)Cn1cnc2c1c(=O)n(CC1CC1)c(=O)n2Cc1ccccc1 | 138 °C
COc1cc(C)nc(NC(=O)NS(=O)(=O)c2ccccc2C2=CCCC2)n1 | 235 to 236 °C
O=C1NCc2c(cccc2Oc2ccccc2)N1 | 278 to 280 °C
COc1ccc(C2c3[nH]c4ccccc4c3CCN2C(=O)C=Cc2ccc(C(F)(F)F)cc2)cc1 (stereo unspecified) | 130 to 135 °C
CSC(=S)N1CCN(Cc2ccccc2N)CC1 | 110 to 114 °C
CC(C)[C@H](NS(=O)(=O)c1ccc(-c2ccc(Br)cc2)cc1)C(=O)O | 192 to 193 °C
N=C(Nc1cc(Cl)cc(NC(=O)/C=C/c2ccccc2Cl)c1)c1cccs1 | 123 to 124 °C
Oc1cc(COCc2ccccc2)ncn1 | 102 to 103 °C
CC(Cc1cc(-c2ccccc2)nc2ccccc12)C(=O)O (stereo unspecified) | 185 °C
O=C(O)c1cc2nc3n(c2cc1Cl)CCC3 | > 270 °C
CCCCN1CCC(CCC(=O)c2cc(Cl)c(N)nc2OC)CC1 | 86 to 87 °C
CCC(CC)c1ccc(Cl)c2nc3n(c12)CCCCN3c1ccc(N(C)C)cc1C | 174 to 175 °C
CON=Cc1cnnc2ccccc12 | 83 to 85 °C
Cc1cc(S(=O)(=O)Cl)c(C)c(S(=O)(=O)Cl)c1 | 24 to 27 °C
COCC(=O)Nc1cccc2c1C(=O)N(C1(C)CCC(=O)NC1=O)C2=O (stereo unspecified) | 244 to 246 °C
NC(=O)c1ccn(-c2ccc(Oc3ccccc3)cc2)n1 | 165 to 167 °C
COc1ccc2c(c1)C(=NO)c1c-2c(O)nc2ccccc12 | 320 to 321 °C
CCCOC(=O)C1=C(N)NC(C)=C(C#N)C1c1cccc2ncc(-c3ccccc3)cc12 (stereo unspecified) | 237 °C
N#Cc1ccc(Oc2nc(Nc3cccc(C(=O)O)c3)nc(Oc3ccccc3)n2)cc1 | 150 °C
CCc1ncnc(N[C@H]2CC[C@@H](C=O)CC2)c1Cl | 96 to 97 °C
CCn1c(SC)cc2ccccc2c1=O | 80 to 82 °C
CCC(C)(C)c1ccc(Oc2cc(NC(=O)Nc3ccc(C#N)cc3)c(O)cc2[N+](=O)[O-])c(C(C)(C)CC)c1 | 212 to 215 °C

Structure (SMILES) | melting point
CCCc1c(OCC(O)COc2ccc3c(=O)cc(C=CC(=O)OCC)oc3c2CCC)ccc(C(C)=O)c1O (stereo unspecified) | 125 to 127 °C
CCOC(=O)N(c1ccc(Cl)cc1Cl)c1ccc(Cl)cc1-n1nc(C(=O)O)nc1CCl | 186 °C
CN(CCNc1ccn2ncc(-c3cccs3)c2n1)C(=O)OC(C)(C)C | 140 to 141 °C
Cc1cccc2c(=O)[nH]c(=O)[nH]c12 | 170 °C
CCCCCCNC(=N)NC#N | 103 to 105 °C
COc1ccc(Cl)c2c1CN(Nc1ccncc1)C2 | 229 to 230 °C
CC(=O)N(C(C)=O)c1ccccc1Cn1[nH]c2ccccc2c1=O | 114 to 115 °C
Cc1ccc(C(=O)OC(C)c2nc3c(c(=O)n(C)c(=O)n3C)n2C)c(C)n1 (stereo unspecified) | 160 °C
Cn1ccnc1N1CCN(c2ccc([N+](=O)[O-])cc2)CC1 | 193 to 194 °C
CC(=O)c1c(NC(=O)c2ccc([N+](=O)[O-])cc2)cccc1C(F)(F)F | 245 °C
C=CCc1cc(C=CNC(C)=O)ccc1OCC1CO1 (stereo unspecified) | 135 to 136 °C
O=c1ccn(-c2cccc(C(F)(F)F)c2)nc1-c1ccnn1-c1ccccn1 | 189 to 190 °C
CCCCCCCCCCCCCCCCNC(=O)c1cc(O)cc(O)c1 | 154 to 156 °C
CC(C(C=Cc1ccc(Cl)cc1)OCc1ccc(Cl)cc1)n1cncn1 (stereo unspecified) | 91 °C
O=C(O)c1cnn2c1NCC=C2c1cccc(C(F)(F)F)c1 | 175 to 177 °C
Cn1ccnc1C1=Cc2cc(OC(C)(C)C(=O)O)ccc2OC1 | 187 to 190 °C
Cc1nc(C(F)(F)F)ccc1C(=O)Nc1ccccc1 | 161 °C
CCSc1cnn(-c2cc(-c3ccnc(Nc4cccc(Cl)c4)n3)ccn2)c(=O)c1Cl | 80 to 100 °C
CCCCC(C#N)(Cn1ccnc1)c1ccc(S(=O)c2ccccc2)cc1 (stereo unspecified) | 55 to 61 °C
Cc1ccc(NC(=O)NCc2ccc3c(c2)C(=O)N(C2(C)CCC(=O)NC2=O)C3=O)cc1Cl (stereo unspecified) | 232 to 234 °C
O=C(NO)[C@H]1CN(S(=O)(=O)c2ccc(-c3ccon3)s2)CCN1S(=O)(=O)c1ccc(-c2ccccc2)s1 | 204 °C
COC(=O)CCCc1cc2cc(C(F)(F)F)ccc2n1S(=O)(=O)c1ccc2ncsc2c1 | 117 to 121 °C
C#CCNC(=O)N1c2ccccc2-c2noc3c2C1CCC3 (stereo unspecified) | 220 °C
Cc1ccc2c(Sc3ccc(Cl)c(Cl)c3)c(C(=O)O)[nH]c2c1 | 252 to 255 °C

Structure (SMILES) | melting point
C[C@]1(CN2CCC(OCCCc3ccc(Cl)cc3)CC2)Cn2cc([N+](=O)[O-])nc2O1 | 88.8 to 91.9 °C
CCOC(=O)c1cnc2ccn(Cc3ccccc3)n2c1=O | 172 to 173 °C
COCC1(N2C(=O)NC(=O)C2=O)C=CC=C(OC2CC(F)CC2Cl)C1 (stereo unspecified) | 90 to 91 °C
CCOC(=O)c1cnc2c(SC(=O)N(C)C)cccn2c1=O | 133 to 134 °C
COc1cc(C2(CNC(=O)Nc3c(C(C)C)cccc3C(C)C)CCC2)cc(OC)c1OC | 145 to 147 °C
CCn1ncc(C(=O)c2ccc(S(C)(=O)=O)c(C(=O)OC)c2C)c1O | 150 to 152 °C
CCOC(=O)NNc1ccnc2c(NC(=O)c3c(Cl)cccc3Cl)cccc12 | 151 to 155 °C
O=C(Nc1cccnn1)N1CCN(c2cncc(-c3ccc(F)cc3F)c2)CC1 | 172 to 173 °C
CS(=O)c1ccc(OCc2ccccc2)c(CCCc2ccc(C(=O)NCCO)cc2)c1 (stereo unspecified) | 105 to 108 °C
CN1C(=O)Nc2ccccc2C1(O)C(=O)NC(N)=O (stereo unspecified) | > 280 °C
CON1C=C2N=NC3=C(N2C1)N(c1ccccc1)CC(C)=C3 | 214 to 217 °C
CCc1nn(C2CCCC2)c2cc(C(=O)NCCC(=O)O)ccc12 | 151 to 153 °C
CCCn1c(=O)c2c(nc(/C=C/c3ccc4c(c3)OCO4)n2C)n(CCC)c1=O | 152 to 155 °C
CCCCOC(=O)C(=O)c1cc(-c2ccc(S(C)(=O)=O)cc2)n(-c2ccccc2)c1C | 100 °C
CC1(C)CCC(C)(C)c2cc3[nH]c(-c4ccc(C(=O)O)cc4)cc3cc21 | 294 to 296 °C
COC(=O)c1c(-c2ccccc2Cl)c2cc(C)cc(C)c2n(C)c1=O | 128 to 129 °C
O=c1c2c(Cl)cc(Cl)cc2n(Cc2ccccc2)c(=O)n1Cc1ccc(F)cc1 | 148 to 151 °C
COc1nc(NNc2nc(OC)nc(OC)n2)nc(OC)n1 | 222 to 224 °C
CCOC(=O)Cn1c(=O)c2ccccc2n(Cc2ccc(Cl)cc2)c1=O | 138 to 139 °C
c1ccc(-c2ccc(Nc3nc4ccccc4o3)cc2)cc1 | 213 to 214 °C
COC(=O)CCC(C)C1CCC2C3CCC4CC(N)CCC4(C)C3CC(=O)C12C (stereo unspecified) | 129 to 130 °C
CCOC(=O)C(=O)Nc1ccc(Cc2ccc(NC(=O)C(=O)OCC)cc2)cc1 | 146 to 147 °C
CC1(C)OC(=O)c2c(O)cccc21 | 128 to 134 °C
